Reference: PubChem BioAssay (NCI)
Several values for one entry are separate records, joined by “and”; a condition that tells them apart may be missing. Equal entries are not always repeated.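 Exposure lasted 48 hours, with cells grown in 96-well plates and compounds tested at five concentrations. GI50: concentration for 50% inhibition of growth. At the TGI there is no net growth.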

What was measured:
Experiment in all cases: DTP human tumour cell line panel, 48 h
[1] = test system: KM20L2 colon
[2] = test system: EKVX NSCLC
[3] = test system: IGROV1 ovarian
[4] = test system: NCI-H226 lung
[5] = test system: SR leukemia
[6] = test system: HCC-2998 colon
[7] = test system: 786-0 renal
[8] = test system: DLD-1 colon
[9] = test system: MDA-N
[10] = test system: MDA-MB-435
[11] = test system: MDA-MB-231 breast

| Structure (SMILES) | GI50 [1] [µM] | TGI [1] | TGI [2] [µM] | TGI [3] [µM] | TGI [4] | TGI [5] [µM] | TGI [6] [µM] | TGI [7] | TGI [8] [µM] | TGI [9] [µM] | TGI [10] [µM] | TGI [11] [µM] | GI50 [4] [µM] | GI50 [5] [µM] | GI50 [10] [µM] | GI50 [11] [µM] | GI50 [2] [µM] | GI50 [6] [µM] | GI50 [3] [µM] | GI50 [8] [µM] |
| --- | --- | --- | --- | --- | --- | --- | --- | --- | --- | --- | --- | --- | --- | --- | --- | --- | --- | --- | --- | --- |
| O=c1cccccc1[O-].O=c1cccccc1[O-].[O]=[U+2]=[O] | 32 | > 100 µM | > 100 | 50.9 | – | – | – | – | – | – | – | – | – | – | – | – | – | – | – | – |
| O=C(OCN1C(=O)C2C3C=CC(C2C1=O)C1C2C(=O)N(COC(=O)C4CCCN4)C(=O)C2C31)C1CCCN1 (stereo unspecified) | – | > 100 µM | > 100 | > 100 | > 100 µM | 26.4 | > 100 | > 60.6 µM | > 69.7 | – | – | – | – | – | – | – | – | – | – | – |
| Cc1nn(-c2ccccc2)c(C)c1/C=N/N=C1\SCC(=O)N1c1ccccc1 | – | – | 47.1 | 93.9 | 66.5 µM | > 100 | 52.8 | 37.7 µM | – | 59.6 | 55.3 | > 100 | – | – | – | – | – | – | – | – |
| CNC(=O)OCc1c(CO)nc(SC)n1C | – | > 100 µM | > 100 | > 100 | > 100 µM | – | > 100 | – | > 100 | – | – | – | – | – | – | – | – | – | – | – |
| O=C(/C=C/c1ccccc1)NNC(=O)c1c(Cl)c(Cl)c(Cl)c(Cl)c1-c1nc2ccccc2[nH]1 | – | – | > 100 | 45.6 | > 100 µM | > 100 | 65.9 | 73.8 µM | – | 45.4 | > 100 | – | – | – | – | – | – | – | – | – |
| COc1cc2c(cc1O)CC[C@@H]1[C@@H]2CC[C@]2(C)[C@@H](OCCN(C)C)CC[C@@H]12 | – | – | 28.5 | 5.94 | 6.04 µM | 0.894 | 1.5 | – | – | – | 0.208 | 0.595 | 1.17 | 0.148 | 0.0997 | 0.153 | 0.527 | 0.644 | 0.818 | – |
| COc1cc2c(ccc3c4cc(OC)c(OC)cc4c[n+](C)c23)cc1O | – | > 75 µM | > 71.5 | > 75 | 9.14 µM | – | 75 | – | > 75 | – | – | – | – | – | – | – | – | – | – | – |
| CCN(CC(=O)O)C(=O)c1cccnc1 | – | – | > 100 | > 100 | – | > 100 | > 100 | > 100 µM | – | > 100 | > 100 | > 100 | – | – | – | – | – | – | – | – |
| CCC(C)C1=C(OC(C)=O)[N+]2([O-])Oc3ccc(-c4c(OC(C)=O)c(OC(C)=O)c(-c5ccc(OC(C)=O)cc5)c(OC(C)=O)c4OC(C)=O)cc3OC2(C(C)CC)C(=O)N1OC(C)=O (stereo unspecified) | – | – | 32.7 | 34.4 | > 50 µM | 30.6 | – | 24 µM | – | > 50 | > 50 | > 50 | – | – | – | – | – | – | – | – |
| O=C(C[n+]1ccc2ccccc2c1)c1ccc2ccc3ccccc3c2c1 | – | – | 19.3 | 17.2 | 25.3 µM | 2.15 | 3.37 | 18 µM | – | 10.8 | 7.75 | 15.3 | – | – | – | – | – | – | – | – |
| CC1=CC(=O)c2ccccc2C1=O | – | – | 31.8 | 29.2 | 31 µM | > 29 | 30.7 | 28.5 µM | – | 2.37 | 3.81 | 9.87 | – | – | – | – | – | – | – | – |
| C[C@H](CCC(=O)O)[C@H]1CC[C@@]2(C)[C@@H]3C(=O)C[C@H]4C(C)(C)[C@@H](O)CC[C@]4(C)[C@H]3C(=O)C[C@]12C | – | – | > 100 | > 100 | > 100 µM | > 100 | > 100 | > 100 µM | – | > 100 | > 100 | > 100 | – | – | – | – | – | – | – | – |
| CCOC(=O)C1=NN(c2ccc(C)cc2)C2=CC(C)=NN(C)C(=S)N21 | – | – | > 100 | > 100 | – | > 100 | > 100 | – | – | > 100 | > 100 | > 100 | – | – | – | – | – | – | – | – |
| O=C(/C=C/c1ccc(O)c(-c2cc(C(=O)/C=C/c3ccc(O)cc3)c(O)cc2O)c1)c1ccc(O)cc1O | – | – | > 50 | > 50 | – | 28.4 | – | > 50 µM | – | > 50 | > 50 | > 50 | – | – | – | – | – | – | – | – |
| CC1CC[C@@]2(OC1)OC1C[C@H]3[C@@H]4CC=C5CC(OC6OC(CO)C(OC7OC(CO)C(O)C(OC8OCC(O)C(O)C8O)C7OC7OC(CO)C(O)C(O)C7O)C(O)C6O)CCC5(C)[C@H]4CCC3(C)C1[C@@H]2C (stereo partly specified) | – | – | 9.01 | 8.06 | > 25 µM | 17.7 | 8.63 | 19.4 µM | – | – | 13.4 | 9.29 | – | – | – | – | – | – | – | – |
| Cc1c(N2C(=O)CS(=O)(=O)C2c2cccc(Oc3ccccc3)c2)c(=O)n(-c2ccccc2)n1C (stereo unspecified) | – | – | > 100 | > 100 | > 100 µM | – | – | – | – | 62.6 | > 100 | > 100 | – | – | – | – | – | – | – | – |

| Structure (SMILES) | GI50 [1] [µM] | TGI [1] | TGI [2] [µM] | TGI [3] [µM] | TGI [4] | TGI [5] [µM] | TGI [6] [µM] | TGI [7] | TGI [8] [µM] | TGI [9] [µM] | TGI [10] [µM] | TGI [11] [µM] | GI50 [4] [µM] | GI50 [5] [µM] | GI50 [10] [µM] | GI50 [11] [µM] | GI50 [2] [µM] | GI50 [6] [µM] | GI50 [3] [µM] | GI50 [8] [µM] |
| --- | --- | --- | --- | --- | --- | --- | --- | --- | --- | --- | --- | --- | --- | --- | --- | --- | --- | --- | --- | --- |
| COc1ccc2c(c1)[nH]c1c(/C=C/c3ccccc3)nccc12 | – | – | 29.6 | > 100 | 53.1 µM | > 100 | 29.9 | 42.2 µM | – | 37.2 | 49 | 37.2 | – | – | – | – | – | – | – | – |
| CCCCCCCCC/C=C/C=C/C(=O)NCC(=O)NC1C(O)C(O)C(Nc2ncnc3nc[nH]c23)OC1C(O)CO (stereo unspecified) | – | 0.0186 µM and 0.126 µM | – | 0.00337 | 0.1 µM and 0.373 µM | – | – | 0.176 µM and 0.256 µM | – | 1.21 | 0.256 | – | 0.00179 | 0.765 | – | – | – | – | – | 0.896 |
| O=C(c1cccs1)N(C(=S)OC12CC3CC(CC(C3)C1)C2)c1ccccc1 | – | – | 55.6 | – | > 100 µM | > 100 | > 100 | > 100 µM | – | > 100 | > 100 | > 100 | – | – | – | – | – | – | – | – |
| COc1cccc2c1Cc1cc(-c3ccccc3)[n+](C)n1-2 | – | – | 8.22 | > 100 | 47.7 µM | > 100 | > 100 | 84.2 µM | – | 26 | 25.5 | 81.7 | – | – | – | – | – | – | – | – |
| NCCSC(c1ccccc1)c1ccccc1 | – | – | 70.1 | 27.8 | 65.6 µM | 43 | – | 32.8 µM | – | 34.2 | 33.8 | 37.3 | – | – | – | – | – | – | – | – |
| Nc1nc(SCCc2ccccc2)nc2nc3c(c(-c4ccccc4)c12)CCCC3 | – | – | > 100 | > 100 | – | – | – | – | – | > 100 | > 100 | > 100 | – | – | – | – | – | – | – | – |
| Clc1cc2c(cc1Cl)CC(NCCN1CCCC1)CC2 (stereo unspecified) | – | – | 38.7 | 29 | 32.1 µM | 38 | 8.02 | 26.3 µM | – | 14.3 | 14.4 | 30.3 | – | – | – | – | – | – | – | – |
| NC(=O)c1c(NC(=O)c2ccccn2)sc2c1CCC(=O)C2 | – | – | > 100 | > 100 | – | > 100 | – | – | – | – | > 100 | – | – | 0.832 | 3.22 | – | 5.01 | – | 3.24 | – |
| CCOC(=O)C(NC(=O)c1ccco1)(Nc1nc2ccc(OCC)cc2s1)C(F)(F)F (stereo unspecified) | – | – | > 100 | – | > 100 µM | 88.5 | > 100 | 68.4 µM | – | 60 | 80.2 | > 100 | – | – | – | – | – | – | – | – |
| COc1ccc(C(=O)/C=C/c2cccc([N+](=O)[O-])c2)c(OC)c1 | – | – | > 50 | – | 7.77 µM | 4.02 | > 50 | – | – | – | > 50 | > 50 | 1.65 | 0.678 | 1.76 | 1.92 | > 50 | 2.27 | – | – |
| O=C(O)C1C2CCC(O2)C1C(=O)Nc1cccc2cccnc12 (stereo unspecified) | – | – | > 100 | > 100 | – | > 100 | > 100 | > 100 µM | – | > 100 | > 100 | > 100 | – | – | – | – | – | – | – | – |
| CC(=O)C1=C(C)N(c2ccc(C)cc2)C2(O)C=CC(=O)C3C(=O)N(c4ccccc4)C(=O)C132 (stereo unspecified) | – | – | 95.5 | 22.3 | 34.3 µM | 23.7 | 52.3 | > 100 µM | – | – | > 100 | 42.8 | – | – | – | – | – | – | – | – |
| CCC1CN(C(=O)c2ccccc2)C(Cc2c[nH]c3ccccc23)C(=O)C1CC(=O)OC (stereo unspecified) | – | – | > 100 | > 100 | > 100 µM | > 100 | – | – | – | – | > 100 | – | – | – | – | – | – | – | – | – |
| COc1nc(C#CC2(O)CCCCC2)nc(OC)n1 | – | – | 35.6 | 23.1 | – | 17.4 | – | > 100 µM | – | 26.3 | 18.8 | 15 | – | – | – | – | – | – | – | – |
| CCn1c(-c2ccc(N=NNc3ccc(-c4n[nH]c(=S)n4CC)cc3)cc2)n[nH]c1=S | – | – | 75.4 | – | 5.86 µM | > 100 | – | 37.2 µM | – | > 100 | – | > 100 | – | – | – | – | – | – | – | – |
| O=c1[nH]nc(NNc2ccccc2)c2nnn(C3CCCCC3)c12 | – | – | > 100 | – | – | > 100 | > 100 | – | – | > 100 | > 100 | > 100 | – | – | – | – | – | – | – | – |
